Article PMC9610943, “Truncated Pleurocidin Derivative with High Pepsin Hydrolysis Resistance to Combat Multidrug-Resistant Pathogens” (Pharmaceutics, 2022)
Where no end group is shown, it is not given here.

How the values were obtained:
MRSA T144 [1] = test: microbe, parasite or virus in culture; format: cell-based, Staphylococcus aureus; conditions: T144
Experimental: (§1) S. aureus ATCC 29213, E. coli ATCC 25922, S. enteritidis ATCC 13076 and A. baumannii ATCC 19609 were obtained from the American Type Culture Collection (ATCC). The remaining strains used in the experiment were all preserved strains in our laboratory. All strains were cultured in nutrient broth overnight to the logarithmic phase at 37 °C prior to each experiment.
(§2) The MICs of all drugs were determined by micro-broth dilution method according to CLSI 2018 guidelines. Briefly, a single colony of the bacterial strain was transferred to 1 mL of Mueller Hilton broth (MHB) and overnight at 37 °C and then 10 μL were cultured in a new 1 mL medium for 4 to 6 h, and then the bacterial culture at the logarithmic phase was diluted to 1 × 10^6 CFUs/mL. The assay was performed by adding 100 μL of each peptide solution at various concentrations (0.25 to 128 μg/mL) and 100 μL of diluted bacterial culture to different wells of a 96-well microtiter plate (Corning, NY, USA). After incubation at 37 °C for 16 to 18 h and then read its MIC value. MIC value is defined as the lowest drug concentration without visible bacteria.

MRSA 1530 = test: microbe, parasite or virus in culture; format: cell-based, Staphylococcus aureus; conditions: 1530
Experimental: as §1, §2

P. aeruginosa PA14 = test: microbe, parasite or virus in culture; format: cell-based; conditions: PA14
Experimental: as §1, §2

[2] = tested on: P. aeruginosa (VIM + tmexCD1-torJ1); test: microbe, parasite or virus in culture; format: cell-based; conditions: VIM + tmexCD1-torJ1
Experimental: as §1, §2

S. aureus ATCC 29213 = test: microbe, parasite or virus in culture; format: cell-based; conditions: ATCC 29213
Experimental: as §1, §2

[3] = tested on: S. aureus 215 (cfr + LZD^R); test: microbe, parasite or virus in culture; format: cell-based; conditions: S. aureus 215 (cfr + LZD^R); micro-broth dilution CLSI 2018, MHB, 37 °C, 16 to 18 h
Experimental: as §1, §2

E. coli 1F28 (tet(X4)) = test: microbe, parasite or virus in culture; format: cell-based; conditions: 1F28 (tet(X4))
Experimental: as §1, §2

E. coli G6 (blaNDM-5) = test: microbe, parasite or virus in culture; format: cell-based; conditions: G6 (blaNDM-5)
Experimental: as §1, §2

S. aureus G16 (RIF^R) = test: microbe, parasite or virus in culture; format: cell-based; conditions: S. aureus G16 (RIF^R); micro-broth dilution CLSI 2018, MHB, 37 °C, 16 to 18 h
Experimental: as §1, §2

E. coli G92 (mcr-1) = test: microbe, parasite or virus in culture; format: cell-based; conditions: G92 (mcr-1)
Experimental: as §1, §2

E. coli C3 (blaNDM-1) = test: microbe, parasite or virus in culture; format: cell-based; conditions: C3 (blaNDM-1)
Experimental: as §1, §2

[4] = tested on: E. coli B2 (blaNDM-5 + mcr-1); test: microbe, parasite or virus in culture; format: cell-based; conditions: B2 (blaNDM-5 + mcr-1)
Experimental: as §1, §2

[5] = tested on: E. faecalis A4 (VRE, VanA); test: microbe, parasite or virus in culture; format: cell-based; conditions: A4 (VRE, VanA)
Experimental: as §1, §2

A. baumannii ATCC 19609 = test: microbe, parasite or virus in culture; format: cell-based; conditions: ATCC 19609
Experimental: as §1, §2

[6] = tested on: S. enteritidis ATCC 13076; test: microbe, parasite or virus in culture; format: cell-based; conditions: ATCC 13076
Experimental: as §1, §2

E. coli ATCC 25922 = test: microbe, parasite or virus in culture; format: cell-based; conditions: ATCC 25922
Experimental: as §1, §2

E. coli CP131 (mcr-3) = test: microbe, parasite or virus in culture; format: cell-based; conditions: CP131 (mcr-3)
Experimental: as §1, §2

E. coli B3-1 (tet(X4)) = test: microbe, parasite or virus in culture; format: cell-based; conditions: B3-1 (tet(X4))
Experimental: as §1, §2

MRSA T144 [7] = format: cell-based, Staphylococcus aureus
Experimental: as §2
(§3) Then, the antibacterial activity of the peptides affected by different temperatures and pH were determined according to the determination steps of MICs test.
(§4) In MHB medium, Na^+, K^+, Mg^2+ and Ca^2+ with the final concentrations of 10 mM, fetal bovine serum, plasma or DMEM medium (Hyclone, Logan, UT, USA) with the final concentrations of 10% was added, and then MIC values were measured to evaluate the effects of different cations, serum and plasma on the antibacterial activity of peptides.
(§5) The peptide was incubated with protease (pepsin, trypsin and papain) (Solarbio, Beijing, China) with a final concentration of 1 mg/mL at 37 °C for 1 h, then the mixture of peptide and protease was heated at 100 °C for 30 min, then centrifuged at 13,000× g for 30 min, and the supernatant was taken for MIC determination.

[8] = tested on: P. cibarius HNCF44W (blaNDM-1+ tet(X6)); test: organism not typed; format: cell-based
Experimental: as §1, §2

E. coli B2 = format: cell-based
Experimental: as §2, §3, §4, §5

For “GWGSFFKKAAHVGKHVGKAALTHYL [Pleu, Pleurocidin]”, the MIC (MRSA T144 [1]) was 2 µg/mL, the MIC (MRSA 1530) was 8 µg/mL and the MIC (P. aeruginosa PA14) was 1 µg/mL. It also gave an MIC [2] of 4 µg/mL, an MIC (S. aureus ATCC 29213) of 4 µg/mL and an MIC [3] of 2 µg/mL. The MIC (E. coli 1F28 (tet(X4))) was 4 µg/mL, the MIC (E. coli G6 (blaNDM-5)) was 1 µg/mL and the MIC (S. aureus G16 (RIF^R)) was 2 µg/mL. For the same sequence, the MIC (E. coli G92 (mcr-1)) was 1 µg/mL, the MIC (E. coli C3 (blaNDM-1)) was 1 µg/mL and the MIC [4] was 2 µg/mL. It also gave an MIC [5] of 8 µg/mL, an MIC (A. baumannii ATCC 19609) of 2 µg/mL and an MIC [6] of 1 µg/mL. It also gave an MIC (E. coli ATCC 25922) of 1 µg/mL, an MIC (E. coli CP131 (mcr-3)) of 1 µg/mL and an MIC (E. coli B3-1 (tet(X4))) of 1 µg/mL. The “MIC after treatment at 121 °C” value (MRSA T144 [7]; T144) was 8 µg/mL, the “MIC in DMEM (10%)” value (MRSA T144 [7]; T144) was 2 µg/mL and the “MIC in Plasma (10%)” value (MRSA T144 [7]; T144) was 2 µg/mL. For the same sequence, the “MIC in Serum (10%)” value (MRSA T144 [7]; T144) was 4 µg/mL, the “MIC in presence of Ca^2+” value (MRSA T144 [7]; T144) was greater than 128 µg/mL and the “MIC in presence of K^+” value (MRSA T144 [7]; T144) was 2 µg/mL. The “MIC in presence of Mg^2+” value (MRSA T144 [7]; T144) was 8 µg/mL, the “MIC in presence of Na^+” value (MRSA T144 [7]; T144) was 2 µg/mL and the “MIC, Control” value (MRSA T144 [7]; T144) was 2 µg/mL. For the same sequence, the “MIC after Papain treatment” value (MRSA T144 [7]; T144, 1 h) was greater than 128 µg/mL, the “MIC after Pepsin treatment” value (MRSA T144 [7]; T144, 1 h) was 64 µg/mL and the “MIC after Trypsin treatment” value (MRSA T144 [7]; T144, 1 h) was greater than 128 µg/mL. For the same sequence, the “MIC after treatment at 40 °C” value (MRSA T144 [7]; T144, 1 h) was 2 µg/mL, the “MIC after treatment at 60 °C” value (MRSA T144 [7]; T144, 1 h) was 1 µg/mL and the “MIC after treatment at 80 °C” value (MRSA T144 [7]; T144, 1 h) was 2 µg/mL. The “MIC after treatment at 100 °C” value (MRSA T144 [7]; T144, 1 h) was 4 µg/mL, the “MIC after treatment at pH 2” value (MRSA T144 [7]; T144, 1 h, pH 2) was 4 µg/mL and the “MIC after treatment at pH 4” value (MRSA T144 [7]; T144, 1 h, pH 4) was 4 µg/mL. For the same sequence, the “MIC after treatment at pH 6” value (MRSA T144 [7]; T144, 1 h, pH 6) was 2 µg/mL, the “MIC after treatment at pH 8” value (MRSA T144 [7]; T144, 1 h, pH 8) was 4 µg/mL and the “MIC after treatment at pH 10” value (MRSA T144 [7]; T144, 1 h, pH 10) was 4 µg/mL. The “MIC after treatment at pH 12” value (MRSA T144 [7]; T144, 1 h, pH 12) was 4 µg/mL, the MIC [8] was 2 µg/mL and the “MIC after treatment at 121 °C” value (E. coli B2; B2) was 2 µg/mL. The “MIC in DMEM (10%)” value (E. coli B2; B2) was 4 µg/mL, the “MIC in Plasma (10%)” value (E. coli B2; B2) was less than 0.25 µg/mL and the “MIC in Serum (10%)” value (E. coli B2; B2) was 1 µg/mL. The “MIC in presence of Ca^2+” value (E. coli B2; B2) was greater than 128 µg/mL, the “MIC in presence of K^+” value (E. coli B2; B2) was 1 µg/mL and the “MIC in presence of Mg^2+” value (E. coli B2; B2) was 128 µg/mL. For the same sequence, the “MIC in presence of Na^+” value (E. coli B2; B2) was 1 µg/mL, the “MIC, Control” value (E. coli B2; B2) was 2 µg/mL and the “MIC after Papain treatment” value (E. coli B2; B2, 1 h) was greater than 128 µg/mL. For the same sequence, the “MIC after Pepsin treatment” value (E. coli B2; B2, 1 h) was 128 µg/mL, the “MIC after Trypsin treatment” value (E. coli B2; B2, 1 h) was greater than 128 µg/mL and the “MIC after treatment at 40 °C” value (E. coli B2; B2, 1 h) was 1 µg/mL. For the same sequence, the “MIC after treatment at 60 °C” value (E. coli B2; B2, 1 h) was 1 µg/mL, the “MIC after treatment at 80 °C” value (E. coli B2; B2, 1 h) was 1 µg/mL and the “MIC after treatment at 100 °C” value (E. coli B2; B2, 1 h) was 2 µg/mL. The “MIC after treatment at pH 2” value (E. coli B2; B2, 1 h, pH 2) was 1 µg/mL, the “MIC after treatment at pH 4” value (E. coli B2; B2, 1 h, pH 4) was 1 µg/mL and the “MIC after treatment at pH 6” value (E. coli B2; B2, 1 h, pH 6) was 1 µg/mL. The “MIC after treatment at pH 8” value (E. coli B2; B2, 1 h, pH 8) was 1 µg/mL, the “MIC after treatment at pH 10” value (E. coli B2; B2, 1 h, pH 10) was 1 µg/mL and the “MIC after treatment at pH 12” value (E. coli B2; B2, 1 h, pH 12) was 1 µg/mL.
